“And” between values parts separate entries of the source, which are not always exact repeats. Identical values can stand only once.
Tested on: 755483-174-R-J1-PDC complex spheroid growth, percent test/control
Test: Anticancer human tumor 755483-174-R-J1-PDC patient-derived rhabdomyosarcoma cell line growth inhibition [Asc]
Conditions: for viability, T/C: stronger effect = lower value
How it was run: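 Spheroid model: tumor line + HUVEC + hMSC. Single agents and combinations; top conc. at/near clinical Cmax (10 microM if undetermined), half-log dilutions. DMSO stocks at 800-fold test concentration.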

[1] = curve of first compound, second compound 0.03 µM
[2] = curve of first compound, second compound 0.0949 µM
[3] = curve of first compound, second compound 0.3 µM
[4] = curve of first compound, second compound 0.949 µM
[5] = curve of first compound, second compound 3 µM
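Note: spheroids exposed to compounds for seven days before readout.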

`Cn1ncnc1[C@H]1c2n[nH]c(=O)c3cc(F)cc(c23)N[C@@H]1c1ccc(F)cc1` + CCN1C(C(=O)NC23CCC(C(=O)O)(CC2)CC3)C(c2cccc(Cl)c2F)C2(C(=O)Nc3cc(Cl)ccc32)C12CCCCC2 showed an IC50 [1] of 10.9 nM, an IC50 [2] of 12.4 nM and an IC50 [3] of 5.94 nM. The IC50 [4] was 7.98 nM, the IC50 [5] was 1.56 nM and the viability, T/C (second compound 0.03 µM, first compound 0.000316 µM) was 64.6%. It also gave a viability, T/C (second compound 0.03 µM, first compound 0.001 µM) of 64.9%, a viability, T/C (second compound 0.03 µM, first compound 0.00316 µM) of 55.6% and a viability, T/C (second compound 0.03 µM, first compound 0.01 µM) of 48.1%. It also gave a viability, T/C (second compound 0.03 µM, first compound 0.0316 µM) of 45.9%, a viability, T/C (second compound 0.03 µM, first compound 0.1 µM) of 35.1% and a viability, T/C (second compound 0.0949 µM, first compound 0.000316 µM) of 70.1%. The viability, T/C (second compound 0.0949 µM, first compound 0.001 µM) was 71.2%, the viability, T/C (second compound 0.0949 µM, first compound 0.00316 µM) was 62.7% and the viability, T/C (second compound 0.0949 µM, first compound 0.01 µM) was 54.1%. For the same molecule, the viability, T/C (second compound 0.0949 µM, first compound 0.0316 µM) was 31.1%, the viability, T/C (second compound 0.0949 µM, first compound 0.1 µM) was 35.5% and the viability, T/C (second compound 0.3 µM, first compound 0.000316 µM) was 64.9%. It also gave a viability, T/C (second compound 0.3 µM, first compound 0.001 µM) of 55%, a viability, T/C (second compound 0.3 µM, first compound 0.00316 µM) of 58.6% and a viability, T/C (second compound 0.3 µM, first compound 0.01 µM) of 42.7%. The viability, T/C (second compound 0.3 µM, first compound 0.0316 µM) was 30.4%, the viability, T/C (second compound 0.3 µM, first compound 0.1 µM) was 32.6% and the viability, T/C (second compound 0.949 µM, first compound 0.000316 µM) was 66.6%. The viability, T/C (second compound 0.949 µM, first compound 0.001 µM) was 66.2%, the viability, T/C (second compound 0.949 µM, first compound 0.00316 µM) was 74% and the viability, T/C (second compound 0.949 µM, first compound 0.01 µM) was 45.4%. The viability, T/C (second compound 0.949 µM, first compound 0.0316 µM) was 43.1%, the viability, T/C (second compound 0.949 µM, first compound 0.1 µM) was 33.8% and the viability, T/C (second compound 3 µM, first compound 0.000316 µM) was 59.6%. The viability, T/C (second compound 3 µM, first compound 0.001 µM) was 51.8%, the viability, T/C (second compound 3 µM, first compound 0.00316 µM) was 45.5% and the viability, T/C (second compound 3 µM, first compound 0.01 µM) was 45.5%. It also gave a viability, T/C (second compound 3 µM, first compound 0.0316 µM) of 41.6% and a viability, T/C (second compound 3 µM, first compound 0.1 µM) of 39.3%.

For `O=C(c1ccc(F)c(F)c1Nc1ccc(I)cc1F)N1CC(O)([C@@H]2CCCCN2)C1` + CNC(C)C(=O)NC1CN(S(=O)(=O)c2cccc(S(=O)(=O)N3CCC4CCC(C(=O)NC(c5ccccc5)c5ccccc5)N4C(=O)C(NC(=O)C(C)NC)C3)c2)CCC2CCC(C(=O)NC(c3ccccc3)c3ccccc3)N2C1=O, the IC50 (curve of first compound, second compound 0.01 µM) was 92.3 nM, the IC50 (curve of first compound, second compound 0.0316 µM) was 27.7 nM and the IC50 (curve of first compound, second compound 0.1 µM) was < 3.16 nM. The IC50 (curve of first compound, second compound 0.316 µM) was < 3.16 nM, the IC50 (curve of first compound, second compound 1 µM) was < 3.16 nM and the viability, T/C (second compound 0.01 µM, first compound 0.00316 µM) was 49.5%. For the same molecule, the viability, T/C (second compound 0.01 µM, first compound 0.01 µM) was 56.7%, the viability, T/C (second compound 0.01 µM, first compound 0.0316 µM) was 51.5% and the viability, T/C (second compound 0.01 µM, first compound 0.1 µM) was 49.9%. The viability, T/C (second compound 0.01 µM, first compound 0.316 µM) was 29.4%, the viability, T/C (second compound 0.01 µM, first compound 1 µM) was 23.4% and the viability, T/C (second compound 0.0316 µM, first compound 0.00316 µM) was 56.5%. For the same molecule, the viability, T/C (second compound 0.0316 µM, first compound 0.01 µM) was 62.9%, the viability, T/C (second compound 0.0316 µM, first compound 0.0316 µM) was 36.2% and the viability, T/C (second compound 0.0316 µM, first compound 0.1 µM) was 47.8%. For the same molecule, the viability, T/C (second compound 0.0316 µM, first compound 0.316 µM) was 41.7%, the viability, T/C (second compound 0.0316 µM, first compound 1 µM) was 25.1% and the viability, T/C (second compound 0.1 µM, first compound 0.00316 µM) was 38.5%. It also gave a viability, T/C (second compound 0.1 µM, first compound 0.01 µM) of 44.7%, a viability, T/C (second compound 0.1 µM, first compound 0.0316 µM) of 38.6% and a viability, T/C (second compound 0.1 µM, first compound 0.1 µM) of 40.3%. The viability, T/C (second compound 0.1 µM, first compound 0.316 µM) was 23.1%, the viability, T/C (second compound 0.1 µM, first compound 1 µM) was 8.23% and the viability, T/C (second compound 0.316 µM, first compound 0.00316 µM) was 35%. For the same molecule, the viability, T/C (second compound 0.316 µM, first compound 0.01 µM) was 25.6%, the viability, T/C (second compound 0.316 µM, first compound 0.0316 µM) was 56% and the viability, T/C (second compound 0.316 µM, first compound 0.1 µM) was 31.4%. It also gave a viability, T/C (second compound 0.316 µM, first compound 0.316 µM) of 20.5%, a viability, T/C (second compound 0.316 µM, first compound 1 µM) of 11.3% and a viability, T/C (second compound 1 µM, first compound 0.00316 µM) of 23.6%. It also gave a viability, T/C (second compound 1 µM, first compound 0.01 µM) of 24.4%, a viability, T/C (second compound 1 µM, first compound 0.0316 µM) of 25.8% and a viability, T/C (second compound 1 µM, first compound 0.1 µM) of 30.4%. For the same molecule, the viability, T/C (second compound 1 µM, first compound 0.316 µM) was 17.1% and the viability, T/C (second compound 1 µM, first compound 1 µM) was 4.97%.

In the case of `CCN1C(C(=O)NC23CCC(C(=O)O)(CC2)CC3)C(c2cccc(Cl)c2F)C2(C(=O)Nc3cc(Cl)ccc32)C12CCCCC2` (stereo not drawn), the viability, T/C (compound 0.00949 µM) is reported as 92.3% and 75.3%, the IC50 (compound alone, run of 09/27/2022) is reported as > 3000 nM and the IC50 (curve of compound) is reported as > 3000 nM.

With `NC(=O)C(=Cn1cnc(-c2cc(C(F)(F)F)cc(C(F)(F)F)c2)n1)c1cncnc1` + CCN1C(C(=O)NC23CCC(C(=O)O)(CC2)CC3)C(c2cccc(Cl)c2F)C2(C(=O)Nc3cc(Cl)ccc32)C12CCCCC2 the IC50 [1] was 4.97 nM, the IC50 [2] was 3.99 nM and the IC50 [3] was 6.47 nM. It also gave an IC50 [4] of 5.41 nM, an IC50 [5] of 3.15 nM and a viability, T/C (second compound 0.03 µM, first compound 0.000949 µM) of 92%. It also gave a viability, T/C (second compound 0.03 µM, first compound 0.003 µM) of 71.4%, a viability, T/C (second compound 0.03 µM, first compound 0.00949 µM) of 22.4% and a viability, T/C (second compound 0.03 µM, first compound 0.03 µM) of 12.8%. It also gave a viability, T/C (second compound 0.03 µM, first compound 0.0949 µM) of 7.75%, a viability, T/C (second compound 0.03 µM, first compound 0.3 µM) of 7.18% and a viability, T/C (second compound 0.0949 µM, first compound 0.000949 µM) of 84%. For the same molecule, the viability, T/C (second compound 0.0949 µM, first compound 0.003 µM) was 56%, the viability, T/C (second compound 0.0949 µM, first compound 0.00949 µM) was 31.7% and the viability, T/C (second compound 0.0949 µM, first compound 0.03 µM) was 14.7%. For the same molecule, the viability, T/C (second compound 0.0949 µM, first compound 0.0949 µM) was 8.83%, the viability, T/C (second compound 0.0949 µM, first compound 0.3 µM) was 5.38% and the viability, T/C (second compound 0.3 µM, first compound 0.000949 µM) was 74.2%. The viability, T/C (second compound 0.3 µM, first compound 0.003 µM) was 75.5%, the viability, T/C (second compound 0.3 µM, first compound 0.00949 µM) was 37.6% and the viability, T/C (second compound 0.3 µM, first compound 0.03 µM) was 13.3%. For the same molecule, the viability, T/C (second compound 0.3 µM, first compound 0.0949 µM) was 7.32%, the viability, T/C (second compound 0.3 µM, first compound 0.3 µM) was 4.64% and the viability, T/C (second compound 0.949 µM, first compound 0.000949 µM) was 83.9%. For the same molecule, the viability, T/C (second compound 0.949 µM, first compound 0.003 µM) was 66.7%, the viability, T/C (second compound 0.949 µM, first compound 0.00949 µM) was 34.4% and the viability, T/C (second compound 0.949 µM, first compound 0.03 µM) was 11.9%. The viability, T/C (second compound 0.949 µM, first compound 0.0949 µM) was 8.43%, the viability, T/C (second compound 0.949 µM, first compound 0.3 µM) was 5.55% and the viability, T/C (second compound 3 µM, first compound 0.000949 µM) was 72.8%. It also gave a viability, T/C (second compound 3 µM, first compound 0.003 µM) of 49.2%, a viability, T/C (second compound 3 µM, first compound 0.00949 µM) of 32.9% and a viability, T/C (second compound 3 µM, first compound 0.03 µM) of 16%. It also gave a viability, T/C (second compound 3 µM, first compound 0.0949 µM) of 5.81% and a viability, T/C (second compound 3 µM, first compound 0.3 µM) of 6.67%.
